The target in one series is T1, Choline Kinase α (CKα) (Homo sapiens, UniProt P35790).
T1 construct: GST; made in house; host or cells: E. coli BL21(DE3)
The series can be described thus: Inhibition of Choline Kinase α, kinase activity assay. The class given is biochemical. As to conditions: recombinant CKα expressed in E. coli. Here is the method: CKα was prepared by expression in E. coli (Bl21(DE3)) and purified by GST column and column chromatography. […] The recombinant protein was pure and active as determined by the results of a kinase activity assay.

A further series has as its system MDA-MB-231. The series can be described thus: Inhibition of cancer cell proliferation, Alamar Blue assay (MDA-MB-231). Type of series: cell-based. As to conditions: Homo sapiens. Here is the method:
(§1) The ability of the compounds described herein to kill or inhibit the proliferation of cancer cells was measured using the Alamar Blue assay using a 72 hours exposure. Results for different cancer cell lines are shown in, the Table 2 below (hematopoietic cell lines U937 and K562; MDA-MB-231 a breast cancer cell line; and NCI-H82 and Calu-6, two lung cancer cell lines): […]
For orientation: Resazurin is reduced to fluorescent resorufin, in cell work by metabolically active cells.

The test system of a further series is U937. The series can be described thus: Inhibition of cancer cell proliferation, Alamar Blue assay (U937). As to conditions: Homo sapiens, U-937. Type of series: cell-based. Here is the method:
as §1

A further series concerns K562. The series can be described thus: Inhibition of cancer cell proliferation, Alamar Blue assay (K562). As to conditions: Homo sapiens. The class given is cell-based. As for the experimental part:
as §1

Series [1] is described as follows: Pharmacokinetics in Balbc mice. As to conditions: Balbc male mice. The class given is in vivo. As for the experimental part: The pharmacokinetic parameters for several compounds listed above were determined in mice following IV (intravenous) or IP (intraperitoneal) administration. Briefly, six Balbc male mice 7 to 8 weeks old were used for each study. A dose of 5 mg/kg or 10 mg/kg was administered using a 5% DMSO/90% Captisol (20% in water) solution for ACT-CK-050 or FFF for ACT-CK-154. Blood samples were collected at different intervals. Plasma samples were extracted and analyzed using an LC-MS/MS method. Results are represented in FIGS. 1 and 2.

A further series relates to NCI-H82. The series can be described thus: Inhibition of cancer cell proliferation, Alamar Blue assay (NCI-H82). The class given is cell-based. As to conditions: Homo sapiens. As for the experimental part:
as §1

Series [2] can be described thus: Microsomal stability in human liver microsomes. The class given is in vitro ADME. The source says:
Microsomal stability in vitro in different biologic media and species is ascertained when screening compounds to evaluate the rate at which a compound undergoes metabolism.

The next series concerns Calu-6. Briefly: Inhibition of cancer cell proliferation, Alamar Blue assay (Calu-6). Type of series: cell-based. As to conditions: Homo sapiens. Here is the method:
as §1

A further series relates to Jurkat. The series can be described thus: Inhibition of cell proliferation (Jurkat). The class given is cell-based. As to conditions: Homo sapiens, Table 2B, Leukemia, average, read-out: IC50 Aver, Jurkat.
Another series has as its system MKN-45. The series can be described thus: Inhibition of cell proliferation (MKN-45). The class given is cell-based. As to conditions: Homo sapiens, Table 2B, Gastric, average, read-out: IC50 Aver, MKN-45.
The next series relates to H209. The series can be described thus: Inhibition of cell proliferation (H209). Type of series: cell-based. As to conditions: Homo sapiens, NCI-H209; Table 2B; Lung; average; read-out: IC50 Aver, H209.
For a further series, the system named is Hep G2. Briefly: Inhibition of cell proliferation (Hep G2). The class given is cell-based. As to conditions: Homo sapiens, HepG2; Table 2B; Liver; average; read-out: IC50 Aver, Hep G2.
In the next series the test system is A431. Briefly: Inhibition of cell proliferation (A431). The class given is cell-based. As to conditions: Homo sapiens, A-431; Table 2B; epidermi; average; read-out: IC50 Aver, A431.
The test system of the next series is DU145. The series can be described thus: Inhibition of cell proliferation (DU145). The class given is cell-based. As to conditions: Homo sapiens, DU-145; Table 2B; Prostate; average; read-out: IC50 Aver, DU145.
A short description of series [3]: Permeability in Caco2 cells. Type of series: in vitro ADME. As to conditions: human, Caco-2, Caco2 cells. The source says:
(§2) The determination of the permeability in Caco2 cells is widely used in screening compounds to assess intestinal drug transport and predict absorption rates.
On the technique in general: Caco-2 monolayers are a common model of the intestinal barrier.

The test system of a further series is Caco2 cells. The series can be described thus: Permeability in Caco2 cells. Type of series: in vitro ADME. As to conditions: Caco2.
Source text: as §2

A further series deals with PC3. Briefly: Inhibition of cell proliferation (PC3). As to conditions: Homo sapiens, PC-3; Table 2B; Prostate; average; read-out: IC50 Aver, PC3. Type of series: cell-based.
The next series relates to HT-29. Briefly: Inhibition of cell proliferation (HT-29). The class given is cell-based. As to conditions: Homo sapiens, Table 2B, Colon, average, read-out: IC50 Aver, HT-29.
The subject of another series is NCI-H2122. Briefly: Inhibition of cell proliferation (NCI-H2122). Type of series: cell-based. As to conditions: Homo sapiens, Table 2B, Lung, average, read-out: IC50 Aver, NCI-H2122.
The next series has as its system Colo-205. The series can be described thus: Inhibition of cell proliferation (Colo-205). Type of series: cell-based. As to conditions: Homo sapiens, Table 2B, Colorectal, average, read-out: IC50 Aver, Colo-205.
The subject of another series is HCT-116. The series can be described thus: Inhibition of cell proliferation (HCT-116). The class given is cell-based. As to conditions: Homo sapiens, Table 2B, Colon, average, read-out: IC50 Aver, HCT-116.
The next series has as its system Hela. Briefly: Inhibition of cell proliferation (Hela). Type of series: cell-based. As to conditions: Homo sapiens, Table 2B, Cervical, average, read-out: IC50 Aver, Hela.
The mark [4] stands for this setting: Table 2A, Alamar Blue, 72 hours exposure, read-out: IC50s MDA-MB231.
Setting [5] is: Table 2A, Alamar Blue, 72 hours exposure, read-out: IC50s U937.
The mark [6] stands for this setting: Table 2A, Alamar Blue, 72 hours exposure, read-out: IC50s K562.
Where [7] appears, read: Table 2A, Alamar Blue, 72 hours exposure, read-out: IC50s NCI-H82.
The mark [8] stands for this setting: Table 2A, Alamar Blue, 72 hours exposure, read-out: IC50s Calu-6.
Where [9] appears, read: IV or IP, 5 mg/kg or 10 mg/kg, 5% DMSO/90% Captisol solution.
Setting [10] is: comparison of A-B and B-A values.

Read-outs that look alike come from different tables or passages of the source.

T1 sequence (P35790 whole entry): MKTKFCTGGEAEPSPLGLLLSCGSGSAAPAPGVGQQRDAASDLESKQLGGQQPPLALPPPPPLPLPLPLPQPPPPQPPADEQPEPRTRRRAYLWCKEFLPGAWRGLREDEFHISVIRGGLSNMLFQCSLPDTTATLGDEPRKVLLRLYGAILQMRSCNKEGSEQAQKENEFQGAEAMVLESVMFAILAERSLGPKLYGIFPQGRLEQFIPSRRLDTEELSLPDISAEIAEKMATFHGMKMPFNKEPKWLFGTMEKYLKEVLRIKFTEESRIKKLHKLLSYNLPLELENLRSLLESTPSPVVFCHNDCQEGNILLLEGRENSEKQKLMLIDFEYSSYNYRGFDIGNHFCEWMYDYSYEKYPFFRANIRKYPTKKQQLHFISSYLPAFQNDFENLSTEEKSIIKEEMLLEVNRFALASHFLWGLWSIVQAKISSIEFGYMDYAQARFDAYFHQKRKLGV

For `CCOc1ccc(-c2nnc(SCC(=O)Nc3cc(OC)cc(OC)c3)[nH]2)cc1` [ACT-CK-109, N-(3,5-Dimethoxy-phenyl)-2-[5-(4-ethoxy-phenyl)-4H-[1,2,4]triazol-3-ylsulfanyl]-acetamide], at Choline Kinase α (CKα), the IC50 was 18000 nM.

Usually Cmax stands for the maximum level reached in the sampled fluid or tissue. As usually defined, the Vd is the apparent volume that relates the amount in the body to the concentration in plasma or blood. Read a low Vd as confinement near the circulation. Regarding `CCOc1ccc(-c2nnc(SCC(=O)Nc3cc(C)cc(C)c3)[nH]2)cc1F` [ACT-CK-154, N-(3,5-Dimethyl-phenyl)-2-[5-(4-ethoxy-3-fluoro-phenyl)-4H-[1,2,4]triazol-3-ylsulfanyl]acetamide], the IC50 in the series on MDA-MB-231 (setting [4]) was determined as 2600 nM; in the series on U937 (setting [5]), 20 nM; with K562 (setting [6]), 800 nM; in the series with NCI-H82 (setting [7]), 160 nM; with Calu-6 (setting [8]), 30 nM. In series [1] (IV, 5 mg/kg), this compound displayed a maximum concentration (Cmax) of 3639 ng/mL. The compound also registered a T1/2b in [1] (IV, 5 mg/kg) of 9 min. Further, in series [1] (IV, 5 mg/kg), the Vd came out at 1.66 L/kg. In addition, the “% Metabolized (mean)” value in [2] is given as 99%.

Take `CCOc1ccc(-c2nnc(SCC(=O)NC3CC(C)(C)NC(C)(C)C3)[nH]2)cc1` [ACT-CK-170, 2-[5-(4-Ethoxy-phenyl)-4H-[1,2,4]triazol-3-ylsulfanyl]-N-(2,2,6,6-tetramethyl-piperidin-4-yl)-acetamide]: the IC50 on Choline Kinase α (CKα) is above 100000 nM.

With `CCOc1ccc(-c2nnc(SCC(=O)Nc3cccc(OC)c3)[nH]2)cc1` [ACT-CK-157, 2-[5-(4-Ethoxy-phenyl)-4H-[1,2,4]triazol-3-ylsulfanyl]-N-(3-methoxy-phenyl)-acetamide], the IC50 on Choline Kinase α (CKα) was 50000 nM.

In the case of `CCOc1ccc(-c2nnc(SCC(=O)N(C)c3cc(C)cc(C)c3)[nH]2)cc1` [ACT-CK-153, N-(3,5-Dimethyl-phenyl)-2-[5-(4-ethoxy-phenyl)-4H-[1,2,4]triazol-3-ylsulfanyl]-N-methyl-acetamide], the IC50 on Choline Kinase α (CKα) came out at 30000 nM. Further, the “% Metabolized (mean)” value in [2] turned out to be 99%.

For orientation: Papp A→B means the apparent permeability from the apical to the basolateral side of a cell layer. Low readings indicate poor permeation, high ones ready permeation. The Papp B→A is the apparent permeability from the basolateral to the apical side of a cell layer. Regarding `CCOc1ccc(-c2nnc(SCC(=O)Nc3cc(C)cc(C)c3)[nH]2)cc1` [ACT-CK-050, N-(3,5-Dimethyl-phenyl)-2-[5-(4-ethoxy-phenyl)-4H-[1,2,4]triazol-3-ylsulfanyl]-acetamide], the IC50 with Jurkat was 10400 nM; with MDA-MB-231 (setting [4]), 18500 nM; with MDA-MB-231 (Table 2B, Breast, average, read-out: IC50 Aver, MDA-MB-231), 18500 nM; in the series on U937 (setting [5]), 60 nM; with U937 (Table 2B, lymphoma, average, read-out: IC50 Aver, U937) it was 63 nM; on Choline Kinase α (CKα), 20000 nM. The IC50 in the series with K562 (setting [6]) is 40 nM; in the series on K562 (Table 2B, Leukemia, average, read-out: IC50 Aver, K562) it was 43 nM; in the series with MKN-45, 47 nM; in the series with H209, 367 nM; in the series with Hep G2 it was 163 nM; in the series with A431 it was 117 nM. Further, the IC50 with NCI-H82 (setting [7]) amounted to 90 nM; with NCI-H82 (Table 2B, Lung, average, read-out: IC50 Aver, NCI-H82) it was 96 nM; in the series with DU145 it was 597 nM; in the series on PC3, 240 nM; with Calu-6 (setting [8]), 60 nM; with Calu-6 (Table 2B, Lung, average, read-out: IC50 Aver, Calu-6) it was 57 nM. Further, the IC50 in the series on HT-29 worked out at 89700 nM; in the series on NCI-H2122, 173 nM; in the series on Colo-205 it was 240 nM; in the series on HCT-116 it was 523 nM; in the series on Hela, 22 nM. The “Clearance (in words)” value in [1] (setting [9]) is “cleared too quickly”. Moreover, the “Plasma levels (in words)” value in series [1] (setting [9]) is reported as “too low”. Moreover, the Papp A→B in [3] (apical to basal) worked out at 46.1 ×10⁻⁶ cm/s. In [3] (basal to apical), this compound registered a Papp B→A of 16.2 ×10⁻⁶ cm/s. Besides, the “Pgp substrate (in words)” value in the series with Caco2 cells (setting [10]) was “not a Pgp substrate”. Further, in the series on Caco2 cells (setting [10]), the “active efflux (in words)” value is “not actively effluxed out the cells”. The “permeability properties (in words)” value with Caco2 cells (high permeability determined as Papp>10×10^−6 cm/s) is given as “high permeability”. In addition, the “% Metabolized (mean)” value in series [2] is 99%.

Source of the values: patent publication US20110257211A1, “Small-Molecule Choline Kinase Inhibitors as Anti-Cancer Therapeutics” (ADVANCED CANCER THERAPEUTICS, LLC, priority 2010, published 2011).
